Source: US11724999B2, “Inhibitors of RAS-effector protein interactions” (Oxford University Innovation Limited, priority 2018, dated 2023)

Target: T1, GST-human KRas166 (G12V) GPPNHP (Homo sapiens, UniProt P01116, G12V)
T1 construct: made in house; host or cells: E. coli C41(DE3)
Experiment: KRas small-molecule screening by SPR (BIACORE T200)
Type: binding
Conditions: compound at final concentration of 100 uM; immobilised GST-KRAS166 (G12V) GPPNHP, GST reference channel
Protocol: For SPR assays pGEX-KRAS(G12V) plasmid was transformed into E. coli C41(DE3). Bacterial cells were cultured at 37° C. to an OD600 of 0.6 and induced with IPTG (final 0.1 mM) at 18° C. overnight. The GST fusion proteins were extracted from bacteria pellets after cell disruption in 140 mM NaCl, 2.7 mM KCl, […], 1.8 mM KH2PO4, 1 mM EDTA, 2 mM MgCl2 pH 7.4 and purified by glutathione-sepharose column chromatography (GE Healthcare), eluting with 50 mM Tris-HCl pH8.0, 10 mM reduced glutathione, 1 mM DTT, 2 mM MgC2. The eluted proteins were dialysed against 50 mM Tris-HCl pH8.0, 1 mM DTT, 2 mM MgCl2 and concentrated to 10 mg/ml using a Biomax-30 […]-15 centrifugal filter device (Millipore). Purified KRAS protein was loaded with GPPNHP as described elsewhere (Pacold et al., 2000). Loaded protein was then purified by gel filtration on a HiLoad Superdex-75 HR column (GE Healthcare) in 1×PBS pH7.4, 5 mM MgCl2 and concentrated for storage.
To a previously immobilized CM5 chip (GE Healthcare BR-1005-30) with anti GST antibody via amine coupling method, GST in channel 1 and GST-human KRas166 (G12V) GPPNHP in channel 2 were immobilised. GST was immobilised between 2,000 and 5,000 Response units. KRAS166 (G12V) was immobilized between 10,000 to 15,000 Response Units.
In a 96 well plate, compounds were diluted in […], 5 mM MgCl2 and 5% DMSO Buffer to a final concentration of 100 uM. DCAI was used as positive control. Experiment also included a solvent correction curve for 5% DMSO. Screening and evaluation of the protein immobilization and the compounds screening was done accordingly to the BIACORE T200 control and evaluation software.
Protein immobilisation: 10,000 RU; average fragment 300 Da in size. Rmax=(MWA/MWL)×RL×SM MWA is the molecular weight of the analyte in Da MWL is the molecular weight of the ligand in Da RL is the immobilization level in RU SM is the molar stoichiometry (assume 1:1) Rmax=300/47,500×10,000×1 Rmax=63 RU. Cell Viability Assay protocols

SMILES	SPR Response Units [Response Units]
O=C(NC[C@@H]1COc2ccc(OCc3ccccc3)cc2O1)C1CCOCC1 [Example 5, Tetrahydro-pyran-4-carboxylic acid ((R)-7-benzyloxy-2,3-dihydro-benzo[1,4]dioxin-2-ylmethyl)-amide]	25
CN(C)CCC(=O)NC[C@@H]1COc2ccc(OCc3ccccc3)cc2O1 [Example 6, N-((R)-7-Benzyloxy-2,3-dihydro-benzo[1,4]dioxin-2-ylmethyl)-3-dimethylamino-propionamide]	21
CN1CCC(CC(=O)NC[C@@H]2COc3ccc(OCc4ccccc4)cc3O2)CC1 [Example 8, N-((R)-7-Benzyloxy-2,3-dihydro-benzo[1,4]dioxin-2-ylmethyl)-2-(1-methyl-piperidin-4-yl)-acetamide]	24
O=C(Cc1cccnc1)NC[C@@H]1COc2ccc(OCc3ccccc3)cc2O1 [Example 11, N-((R)-7-Benzyloxy-2,3-dihydro-benzo[1,4]dioxin-2-ylmethyl)-2-pyridin-3-yl-acetamide]	68
Cc1n[nH]c(C)c1CC(=O)NC[C@@H]1COc2ccc(OCc3ccccc3)cc2O1 [Example 12, N-((R)-7-Benzyloxy-2,3-dihydro-benzo[1,4]dioxin-2-ylmethyl)-2-(3,5-dimethyl-1H-pyrazol-4-yl)-acetamide]	53
NC(=O)CN1CCC(C(=O)NC[C@@H]2COc3ccc(OCc4ccccc4)cc3O2)CC1 [Example 14, 1-Carbamoylmethyl-piperidine-4-carboxylic acid ((R)-7-benzyloxy-2,3-dihydro-benzo[1,4]dioxin-2-ylmethyl)-amide]	24
O=C(NC[C@@H]1COc2ccc(OCc3ccccc3)cc2O1)C1CCN(Cc2ccco2)CC1 [Example 15, 1-Furan-2-ylmethyl-piperidine-4-carboxylic acid ((R)-7-benzyloxy-2,3-dihydro-benzo[1,4]dioxin-2-ylmethyl)-amide]	33
O=C(CC1CCNCC1)NC[C@@H]1COc2ccc(OCc3ccccc3)cc2O1 [Example 16, N-((R)-7-Benzyloxy-2,3-dihydro-benzo[1,4]dioxin-2-ylmethyl)-2-piperidin-4-yl-acetamide]	25
O=C(NC[C@@H]1COc2ccc(OCc3ccccc3)cc2O1)C1CCNCC1 [Example 17, Piperidine-4-carboxylic acid ((R)-7-benzyloxy-2,3-dihydro-benzo[1,4]dioxin-2-ylmethyl)-amide]	22
O=C(NC[C@@H]1COc2ccc(OCc3cccnc3)cc2O1)c1ncco1 [Example 19, Oxazole-2-carboxylic acid [(R)-7-(pyridin-3-ylmethoxy)-2,3-dihydro-benzo[1,4]dioxin-2-ylmethyl]-amide]	40
O=C(NC[C@@H]1COc2ccc(OCc3cn[nH]c3)cc2O1)c1ncco1 [Example 20, Oxazole-2-carboxylic acid [(R)-7-(1H-pyrazol-4-ylmethoxy)-2,3-dihydro-benzo[1,4]dioxin-2-ylmethyl]-amide]	40
CN1CCC(COc2ccc3c(c2)O[C@H](CNC(=O)c2ncco2)CO3)CC1 [Example 21, Oxazole-2-carboxylic acid [(R)-7-(1-methyl-piperidin-4-ylmethoxy)-2,3-dihydro-benzo[1,4]dioxin-2-ylmethyl]-amide]	9
CN1CCN(Cc2ccc(C(=O)NC[C@@H]3COc4ccc(OCc5cncc(Cl)c5)cc4O3)o2)CC1 [Example 25, 5-(4-Methyl-piperazin-1-ylmethyl)-furan-2-carboxylic acid [(R)-7-(5-chloro-pyridin-3-ylmethoxy)-2,3-dihydro-benzo[1,4]dioxin-2-ylmethyl]-amide]	45
CN1CCN(Cc2ccc(C(=O)NC[C@@H]3COc4ccc(OCc5ccc(Cl)cn5)cc4O3)o2)CC1 [Example 26, 5-(4-Methyl-piperazin-1-ylmethyl)-furan-2-carboxylic acid [(R)-7-(5-chloro-pyridin-2-ylmethoxy)-2,3-dihydro-benzo[1,4]dioxin-2-ylmethyl]-amide]	48
CC(=O)N1CCC(NC[C@@H]2COc3ccc(OCc4ccccc4)cc3O2)CC1 [Example 34, 1-{4-[((R)-7-Benzyloxy-2,3-dihydro-benzo[1,4]dioxin-2-ylmethyl)-amino]-piperidin-1-yl}-ethanone]	23
c1ccc(COc2ccc3c(c2)O[C@H](CNC2CCc4ccccc42)CO3)cc1 (stereo partly drawn) [Example 48, ((R)-7-Benzyloxy-2,3-dihydro-benzo[1,4]dioxin-2-ylmethyl)-indan-1-yl-amine]	24
CNC(=O)C(NC[C@@H]1COc2ccc(OCc3ccccc3)cc2O1)c1ccccc1 (stereo partly drawn) [Example 49, 2-[((R)-7-Benzyloxy-2,3-dihydro-benzo[1,4]dioxin-2-ylmethyl)-amino]-N-methyl-2-phenyl-acetamide]	67

Next, values leading:

SPR Response Units [Response Units]	SMILES
29	c1ccc(COc2ccc3c(c2)O[C@H](CNCC2COCCN2)CO3)cc1 (stereo partly drawn) [Example 57, ((R)-7-Benzyloxy-2,3-dihydro-benzo[1,4]dioxin-2-ylmethyl)-morpholin-3-ylmethyl-amine]
79	O=C(C1COc2ccc(OCc3ccccc3)cc2O1)N1CCN(Cc2ccncc2)CC1 (stereo not shown) [Example 63, (7-Benzyloxy-2,3-dihydro-benzo[1,4]dioxin-2-yl)-(4-pyridin-4-ylmethyl-piperazin-1-yl)-methanone]
36	O=C(C1COc2ccc(OCc3ccccc3)cc2O1)N1CCN(CC2CCOCC2)CC1 (stereo not shown) [Example 64, (7-Benzyloxy-2,3-dihydro-benzo[1,4]dioxin-2-yl)-[4-(tetrahydro-pyran-4-ylmethyl)-piperazin-1-yl]-methanone]
46	O=C(NCc1ccc(CN2CCOCC2)cc1)C1COc2ccc(OCc3ccccc3)cc2O1 (stereo not shown) [Example 65, 7-Benzyloxy-2,3-dihydro-benzo[1,4]dioxine-2-carboxylic acid 4-morpholin-4-ylmethyl-benzylamide]
53	O=C(NCc1cccc(CN2CCOCC2)c1)C1COc2ccc(OCc3ccccc3)cc2O1 (stereo not shown) [Example 66, 7-Benzyloxy-2,3-dihydro-benzo[1,4]dioxine-2-carboxylic acid 3-morpholin-4-ylmethyl-benzylamide]
49	O=C(NCc1cccnc1)C1COc2ccc(OCc3ccccc3)cc2O1 (stereo not shown) [Example 67, 7-Benzyloxy-2,3-dihydro-benzo[1,4]dioxine-2-carboxylic acid (pyridin-3-ylmethyl)-amide]
57	O=C(NCc1ccncc1)C1COc2ccc(OCc3ccccc3)cc2O1 (stereo not shown) [Example 68, 7-Benzyloxy-2,3-dihydro-benzo[1,4]dioxine-2-carboxylic acid (pyridin-4-ylmethyl)-amide]
7	O=C1CC(CNC(=O)C2COc3ccc(OCc4ccccc4)cc3O2)CCN1 (stereo not shown) [Example 71, 7-Benzyloxy-2,3-dihydro-benzo[1,4]dioxine-2-carboxylic acid (2-oxo-piperidin-4-ylmethyl)-amide]
